In patent US5399487A, “6-peptidylamino-1-naphthalenesulfonamides useful as fluorogenic proteolytic enzyme substrates” (Haematologic Technologies, Inc., priority 1993, dated 1995):

Columns and labels:
Assay in all cases: Fluorogenic enzyme assay (Example 5)
Assay type in all cases: biochemical
thrombin (IIa) = target: T1, thrombin (IIa) (Homo sapiens, UniProt P00734); design: key to Hydrolysis kinetic constants, IIa (symbol b): Slow substrate hydrolysis, no kinetic constants calculated; conditions: for Time (min) for 10% hydrolysis, IIa: enzyme 100 nM, substrate 1 μM
T1 construct: 0.5 nM human thrombin (IIa)
Method: (§1) Enzyme assays (except factor VIIa assays, see below) were conducted in 20 mM Tris, 150 mM NaCl, pH 7.4 (TBS) at room temperature (22° C.). The final volume for all reaction mixtures was 2.0 ml. Fluorogenic substrates were dissolved in DMSO to a stock concentration of 10 mM. The 10 mM stock solution was diluted in TBS to the final working concentration prior to all assays. Enzyme was added to mixtures containing buffer components and substrate and the initial rate of substrate hydrolysis was measured as the change in fluorescent intensity over time, corresponding to the generation of the particular 6-amino-1-naphthalenesulfonamide fluorophore from the provided substrate. Quantitation of substrate hydrolysis was accomplished by establishing a standard curve from the appropriate fluorescent moiety. Fluorescence was monitored (continuously or discontinuously) using a Perkin Elmer fluorescence spectrophotometer, model MPF-44A, equipped with a standard chart recorder. The fluorophore was detected using monochrometers set at an excitation wavelength of 352 nm and an emission wavelength of 470 nm. Light scattering artifacts were minimized using a 399 nm cut off filter in the emission light beam.
(§2) The kinetic constants of substrate hydrolysis were determined using the non-linear least squares regression analysis program ENZFITTER (Cambridge, UK). This program was used to iteratively fit initial rates of substrate hydrolysis to the Michaelis-Menten equation and the kinetic constants of substrate hydrolysis (Km) and (kcat) were calculated.

factor Xa = factor Xa (Homo sapiens, UniProt P00742); conditions: for Km / kcat /Km, Xa / kcat, Xa: Table 7; for Time (min) for 10% hydrolysis, Xa: enzyme 100 nM, substrate 1 μM
Sequence of factor Xa (P00742 235-488 limits assumed): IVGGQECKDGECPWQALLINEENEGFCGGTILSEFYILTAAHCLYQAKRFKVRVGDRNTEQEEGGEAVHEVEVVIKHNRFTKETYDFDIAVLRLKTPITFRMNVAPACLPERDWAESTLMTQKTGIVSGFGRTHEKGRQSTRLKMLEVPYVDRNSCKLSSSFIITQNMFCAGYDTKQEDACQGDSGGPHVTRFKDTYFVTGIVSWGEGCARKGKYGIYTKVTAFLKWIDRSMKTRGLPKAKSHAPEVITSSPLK
Sequence of factor Xa (P00742 41-179 limits assumed): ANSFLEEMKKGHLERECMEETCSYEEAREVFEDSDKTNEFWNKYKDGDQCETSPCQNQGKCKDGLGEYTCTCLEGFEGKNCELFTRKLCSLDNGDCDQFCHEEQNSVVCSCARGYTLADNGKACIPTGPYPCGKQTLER
Method: as §1, §2

[1] = target: activated protein C (APC) (Homo sapiens, UniProt P04070); design: key to Hydrolysis kinetic constants, APC (symbol b): Slow substrate hydrolysis, no kinetic constants calculated; conditions: for Time (min) for 10% hydrolysis, APC: enzyme 100 nM, substrate 1 μM
Sequence of activated protein C (APC) (P04070 212-461 limits assumed): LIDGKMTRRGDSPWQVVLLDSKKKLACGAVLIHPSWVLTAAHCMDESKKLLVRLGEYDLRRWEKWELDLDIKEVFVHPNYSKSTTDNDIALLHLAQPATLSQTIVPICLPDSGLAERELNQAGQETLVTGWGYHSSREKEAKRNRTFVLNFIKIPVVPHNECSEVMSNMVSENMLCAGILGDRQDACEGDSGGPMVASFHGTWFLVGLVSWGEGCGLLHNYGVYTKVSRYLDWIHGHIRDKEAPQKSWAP
Sequence of activated protein C (APC) (P04070 43-197 limits assumed): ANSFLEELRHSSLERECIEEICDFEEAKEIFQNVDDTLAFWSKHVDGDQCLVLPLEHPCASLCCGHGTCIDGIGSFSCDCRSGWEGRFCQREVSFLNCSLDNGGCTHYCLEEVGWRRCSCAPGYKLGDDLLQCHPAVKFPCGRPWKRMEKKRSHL
Method: as §1, §2

plasmin (Plm) = plasmin (Plm) (Homo sapiens, UniProt P00747); conditions: enzyme 100 nM, substrate 1 μM; for Time (min) for 5% hydrolysis, Plm: footnote b
Sequence of plasmin (Plm) (P00747 581-810 limits assumed, species assumed): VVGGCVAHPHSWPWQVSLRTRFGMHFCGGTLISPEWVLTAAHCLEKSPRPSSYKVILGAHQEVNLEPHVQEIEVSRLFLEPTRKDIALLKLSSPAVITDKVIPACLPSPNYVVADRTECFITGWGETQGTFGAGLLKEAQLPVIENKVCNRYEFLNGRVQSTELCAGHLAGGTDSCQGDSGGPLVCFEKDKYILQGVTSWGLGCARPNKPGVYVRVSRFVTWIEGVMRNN
Sequence of plasmin (Plm) (P00747 97-580 limits assumed, species assumed): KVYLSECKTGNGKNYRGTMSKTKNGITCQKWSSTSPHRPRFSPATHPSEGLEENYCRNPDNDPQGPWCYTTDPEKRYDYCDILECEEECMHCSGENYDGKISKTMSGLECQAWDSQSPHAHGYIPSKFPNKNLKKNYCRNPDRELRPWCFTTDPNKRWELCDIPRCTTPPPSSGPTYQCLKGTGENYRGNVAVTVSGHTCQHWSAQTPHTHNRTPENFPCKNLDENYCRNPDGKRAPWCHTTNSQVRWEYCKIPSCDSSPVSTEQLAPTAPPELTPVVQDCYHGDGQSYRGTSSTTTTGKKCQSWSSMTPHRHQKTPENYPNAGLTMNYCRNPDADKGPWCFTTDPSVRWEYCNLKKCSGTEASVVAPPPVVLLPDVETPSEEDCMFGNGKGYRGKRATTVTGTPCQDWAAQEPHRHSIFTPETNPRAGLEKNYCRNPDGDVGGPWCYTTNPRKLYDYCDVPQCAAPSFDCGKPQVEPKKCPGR
Method: as §1, §2

[2] = target: tissue plasminogen activator (t-PA) (Homo sapiens, UniProt P00750); conditions: enzyme 100 nM, substrate 1 μM; for hydrolysis, t-PA (symbol N.D.): after 24 hrs
Sequence of tissue plasminogen activator (t-PA) (P00750 36-562, species assumed): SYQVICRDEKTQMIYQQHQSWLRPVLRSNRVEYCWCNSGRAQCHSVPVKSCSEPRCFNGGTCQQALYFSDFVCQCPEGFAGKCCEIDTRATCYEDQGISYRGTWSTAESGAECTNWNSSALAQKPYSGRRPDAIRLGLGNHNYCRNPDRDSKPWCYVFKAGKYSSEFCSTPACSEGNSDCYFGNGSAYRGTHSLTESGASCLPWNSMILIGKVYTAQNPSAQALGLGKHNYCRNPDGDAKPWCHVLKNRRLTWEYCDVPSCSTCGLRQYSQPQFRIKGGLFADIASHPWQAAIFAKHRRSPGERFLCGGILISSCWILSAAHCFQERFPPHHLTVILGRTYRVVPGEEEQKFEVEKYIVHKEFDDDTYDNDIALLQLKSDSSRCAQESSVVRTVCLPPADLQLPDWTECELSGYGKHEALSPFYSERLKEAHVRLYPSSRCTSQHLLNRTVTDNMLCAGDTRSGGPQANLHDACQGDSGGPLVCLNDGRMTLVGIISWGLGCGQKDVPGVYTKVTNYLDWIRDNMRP
Method: as §1, §2

urokinase (u-PA) = urokinase (u-PA) (Homo sapiens, UniProt P00749); conditions: enzyme 100 nM, substrate 1 μM
Method: as §1, §2

Row | Km (thrombin (IIa); Table 7) [µM] | kcat /Km, IIa (thrombin (IIa); Table 7) [M⁻¹ s⁻¹] | kcat, IIa (thrombin (IIa); Table 7) [s⁻¹] | Time (min) for 10% hydrolysis, IIa (thrombin (IIa)) [min] | Km (factor Xa) [µM] | kcat /Km, Xa (factor Xa) [M⁻¹ s⁻¹] | kcat, Xa (factor Xa) [s⁻¹] | Time (min) for 10% hydrolysis, Xa (factor Xa) [min] | Km ([1]; Table 7) [µM] | kcat /Km, APC ([1]; Table 7) [M⁻¹ s⁻¹] | kcat, APC ([1]; Table 7) [s⁻¹] | Time (min) for 10% hydrolysis, APC [1] [min] | Time (min) for 5% hydrolysis, Plm (plasmin (Plm)) [min] | Time (min) for 10% hydrolysis, u-PA (urokinase (u-PA)) [min] | Time (min) for 10% hydrolysis, Plm (plasmin (Plm)) [min] | Structure (SMILES) | hydrolysis, t-PA (symbol N.D.) [2] | other results
1 | 35.3 | 1420 | 0.05 | 25 | 86.5 | 811 | 0.07 | 33 | 960 | 1670 | 1.6 | 17 | 1620 | 200 |  | Br.CC(C)CNS(=O)(=O)c1cccc2cc(NC(=O)[C@H](CCCNC(=N)N)NC(=O)OCc3ccccc3)ccc12 [(N^α -Z)ArgANSNR1 R2; H; i-C4 H9] | N.D. (Less than 5% hydrolysis after 24 hrs.) | 
2 |  |  |  | 90 | 427 | 293 | 0.13 | 20 |  |  |  | 813 | 770 |  |  | Br.N=C(N)NCCC[C@H](NC(=O)OCc1ccccc1)C(=O)Nc1ccc2c(S(=O)(=O)N3CCCCCC3)cccc2c1 [(N^α -Z)ArgANSNR1 R2; (CH2)6] | N.D. (Less than 5% hydrolysis after 24 hrs.) | Hydrolysis kinetic constants, IIa (symbol b) (thrombin (IIa); Table 7): b; Hydrolysis kinetic constants, APC (symbol b) ([1]; Table 7): b; hydrolysis, u-PA (symbol N.D.) (urokinase (u-PA); after 24 hrs): N.D. (Less than 5% hydrolysis after 24 hrs.)
3 | 27.9 | 1090 | 0.03 | 23 | 51.8 | 633 | 0.03 | 55 | 810 | 2470 | 0.44 | 12 |  |  | 1140 | Br.N=C(N)NCCC[C@H](NC(=O)OCc1ccccc1)C(=O)Nc1ccc2c(S(=O)(=O)NC3CCCCC3)cccc2c1 [(N^α -Z)ArgANSNR1 R2; H; cyclo-C6 H11] | N.D. (Less than 5% hydrolysis after 24 hrs.) | Time (min) for 5% hydrolysis, u-PA (urokinase (u-PA); footnote b): 1620 min
4 | 41 | 1680 | 0.07 | 17 | 213 | 198 | 0.04 | 46 | 218 | 1050 | 0.23 | 12 |  | 19 | 330 | Br.N=C(N)NCCC[C@H](NC(=O)OCc1ccccc1)C(=O)Nc1ccc2c(S(=O)(=O)NCc3ccccc3)cccc2c1 [(N^α -Z)ArgANSNR1 R2; H; benzyl] |  | Time (min) for 10% hydrolysis, t-PA [2]: 510 min
